Data published in PubChem BioAssay AID1963853 (Molecular Pharmacology Branch, DTP, NCI, 2024).

System: 266295-075-R-J1-PDC spheroid viability
Experiment: Anticancer human tumor 266295-075-R-J1-PDC patient-derived head and neck squamous carcinoma cell line growth inhibition [POLQ]
Conditions: spheroids with HUVEC and MSC; for IC50: curve of first compound; for viability, T/C: stronger effect = lower value
Method in brief: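 Patient-derived tumour cells were co-cultured with HUVEC and mesenchymal stem cells as multicellular spheroids at 37 °C. They were treated with POLQ inhibitors (novobiocin, ART-558, RP6685) alone or combined with other agents. Top concentrations were at or near clinical Cmax (otherwise 10 microM; SN-38 at 1 microM), decreasing in half-log steps.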

[1] = second compound 0.0316 µM, first compound 0.0316 µM
[2] = second compound 0.0316 µM, first compound 0.1 µM
[3] = second compound 0.0316 µM, first compound 0.316 µM
[4] = second compound 0.0316 µM, first compound 1 µM
[5] = second compound 0.0316 µM, first compound 3.16 µM
[6] = second compound 0.0316 µM, first compound 10 µM
[7] = second compound 0.1 µM, first compound 0.0316 µM
[8] = second compound 0.1 µM, first compound 0.1 µM
[9] = second compound 0.1 µM, first compound 0.316 µM
[10] = second compound 0.1 µM, first compound 1 µM
[11] = second compound 0.1 µM, first compound 3.16 µM
[12] = second compound 0.1 µM, first compound 10 µM
[13] = second compound 0.316 µM, first compound 0.0316 µM
[14] = second compound 0.316 µM, first compound 0.1 µM
[15] = second compound 0.316 µM, first compound 0.316 µM
[16] = second compound 0.316 µM, first compound 1 µM
[17] = second compound 0.316 µM, first compound 3.16 µM
[18] = second compound 0.316 µM, first compound 10 µM
[19] = second compound 1 µM, first compound 0.0316 µM
[20] = second compound 1 µM, first compound 0.1 µM
[21] = second compound 1 µM, first compound 0.316 µM
[22] = second compound 1 µM, first compound 1 µM
[23] = second compound 1 µM, first compound 3.16 µM
[24] = second compound 1 µM, first compound 10 µM
[25] = second compound 3.16 µM, first compound 0.0316 µM
[26] = second compound 3.16 µM, first compound 0.1 µM
[27] = second compound 3.16 µM, first compound 0.316 µM
[28] = second compound 3.16 µM, first compound 1 µM
[29] = second compound 3.16 µM, first compound 3.16 µM
[30] = second compound 3.16 µM, first compound 10 µM
[31] = second compound 10 µM, first compound 0.0316 µM
[32] = second compound 10 µM, first compound 0.1 µM
[33] = second compound 10 µM, first compound 0.316 µM
[34] = second compound 10 µM, first compound 1 µM
[35] = second compound 10 µM, first compound 3.16 µM
[36] = second compound 10 µM, first compound 10 µM
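Note: spheroids exposed to compounds for seven days before readout.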

With `CC1COCCN1c1cc(C2(S(C)(=N)=O)CC2)nc(-c2ccnc3[nH]ccc23)n1` (stereo unspecified) + Cc1cccc(N(C)C(=O)C2C(O)CCN2c2nc(C)cc(C(F)(F)F)c2C#N)c1 the IC50 (second compound 0.0316 µM) was greater than 10 µM, the IC50 (second compound 0.1 µM) was greater than 10 µM and the IC50 (second compound 0.316 µM) was greater than 10 µM. It also gave an IC50 (second compound 1 µM) of 9.31 µM, an IC50 (second compound 3.16 µM) greater than 10 µM and an IC50 (second compound 10 µM) greater than 10 µM. The viability, T/C [1] was 101%, the viability, T/C [2] was 83.2% and the viability, T/C [3] was 87%. The viability, T/C [4] was 79.8%, the viability, T/C [5] was 81.3% and the viability, T/C [6] was 57%. It also gave a viability, T/C [7] of 95.2%, a viability, T/C [8] of 83.5% and a viability, T/C [9] of 79.3%. It also gave a viability, T/C [10] of 86.8%, a viability, T/C [11] of 72.1% and a viability, T/C [12] of 55.1%. It also gave a viability, T/C [13] of 89.8%, a viability, T/C [14] of 98.6% and a viability, T/C [15] of 111%. For the same molecule, the viability, T/C [16] was 81.4%, the viability, T/C [17] was 75.8% and the viability, T/C [18] was 56.7%. It also gave a viability, T/C [19] of 94.4%, a viability, T/C [20] of 100% and a viability, T/C [21] of 96.8%. It also gave a viability, T/C [22] of 82.5%, a viability, T/C [23] of 69.8% and a viability, T/C [24] of 48.5%. It also gave a viability, T/C [25] of 103%, a viability, T/C [26] of 93.6% and a viability, T/C [27] of 81.4%. The viability, T/C [28] was 89.3%, the viability, T/C [29] was 72.5% and the viability, T/C [30] was 55.2%. For the same molecule, the viability, T/C [31] was 92.8%, the viability, T/C [32] was 98.1% and the viability, T/C [33] was 97.1%. For the same molecule, the viability, T/C [34] was 94.3%, the viability, T/C [35] was 74.2% and the viability, T/C [36] was 56.2%.

`CCCS(=O)(=O)Nc1ccc(F)c(C(=O)c2c[nH]c3ncc(-c4ccc(Cl)cc4)cc23)c1F` + Cc1cccc(N(C)C(=O)C2C(O)CCN2c2nc(C)cc(C(F)(F)F)c2C#N)c1 showed an IC50 (second compound 0.0316 µM) greater than 10 µM, an IC50 (second compound 0.1 µM) greater than 10 µM and an IC50 (second compound 0.316 µM) greater than 10 µM. It also gave an IC50 (second compound 1 µM) greater than 10 µM, an IC50 (second compound 3.16 µM) greater than 10 µM and an IC50 (second compound 10 µM) greater than 10 µM. For the same molecule, the viability, T/C [1] was 108%, the viability, T/C [2] was 97.7% and the viability, T/C [3] was 122%. It also gave a viability, T/C [4] of 161%, a viability, T/C [5] of 150% and a viability, T/C [6] of 126%. For the same molecule, the viability, T/C [7] was 127%, the viability, T/C [8] was 81.3% and the viability, T/C [9] was 92.8%. It also gave a viability, T/C [10] of 126%, a viability, T/C [11] of 187% and a viability, T/C [12] of 142%. For the same molecule, the viability, T/C [13] was 95.5%, the viability, T/C [14] was 93% and the viability, T/C [15] was 98.1%. The viability, T/C [16] was 134%, the viability, T/C [17] was 171% and the viability, T/C [18] was 139%. It also gave a viability, T/C [19] of 118%, a viability, T/C [20] of 76.5% and a viability, T/C [21] of 95.5%. The viability, T/C [22] was 132%, the viability, T/C [23] was 158% and the viability, T/C [24] was 142%. For the same molecule, the viability, T/C [25] was 106%, the viability, T/C [26] was 100% and the viability, T/C [27] was 96.6%. The viability, T/C [28] was 111%, the viability, T/C [29] was 155% and the viability, T/C [30] was 132%. For the same molecule, the viability, T/C [31] was 96.3%, the viability, T/C [32] was 137% and the viability, T/C [33] was 113%. For the same molecule, the viability, T/C [34] was 111%, the viability, T/C [35] was 187% and the viability, T/C [36] was 134%.

`Cn1ncnc1[C@H]1c2n[nH]c(=O)c3cc(F)cc(c23)N[C@@H]1c1ccc(F)cc1` + Cc1cccc(N(C)C(=O)C2C(O)CCN2c2nc(C)cc(C(F)(F)F)c2C#N)c1 gave an IC50 (second compound 0.0316 µM) greater than 0.1 µM, an IC50 (second compound 0.1 µM) greater than 0.1 µM and an IC50 (second compound 0.316 µM) greater than 0.1 µM. The IC50 (second compound 1 µM) was greater than 0.1 µM, the IC50 (second compound 3.16 µM) was greater than 0.1 µM and the IC50 (second compound 10 µM) was greater than 0.1 µM. For the same molecule, the viability, T/C (second compound 0.0316 µM, first compound 0.000316 µM) was 88.2%, the viability, T/C (second compound 0.0316 µM, first compound 0.001 µM) was 93.7% and the viability, T/C (second compound 0.0316 µM, first compound 0.00316 µM) was 84.3%. The viability, T/C (second compound 0.0316 µM, first compound 0.01 µM) was 109%, the viability, T/C [1] was 100% and the viability, T/C [2] was 96.5%. For the same molecule, the viability, T/C (second compound 0.1 µM, first compound 0.000316 µM) was 99.4%, the viability, T/C (second compound 0.1 µM, first compound 0.001 µM) was 104% and the viability, T/C (second compound 0.1 µM, first compound 0.00316 µM) was 85.4%. For the same molecule, the viability, T/C (second compound 0.1 µM, first compound 0.01 µM) was 115%, the viability, T/C [7] was 90% and the viability, T/C [8] was 87.9%. It also gave a viability, T/C (second compound 0.316 µM, first compound 0.000316 µM) of 108%, a viability, T/C (second compound 0.316 µM, first compound 0.001 µM) of 99.2% and a viability, T/C (second compound 0.316 µM, first compound 0.00316 µM) of 99.1%. The viability, T/C (second compound 0.316 µM, first compound 0.01 µM) was 104%, the viability, T/C [13] was 95.7% and the viability, T/C [14] was 99.7%. For the same molecule, the viability, T/C (second compound 1 µM, first compound 0.000316 µM) was 103%, the viability, T/C (second compound 1 µM, first compound 0.001 µM) was 122% and the viability, T/C (second compound 1 µM, first compound 0.00316 µM) was 89%. For the same molecule, the viability, T/C (second compound 1 µM, first compound 0.01 µM) was 97.1%, the viability, T/C [19] was 113% and the viability, T/C [20] was 75.8%. It also gave a viability, T/C (second compound 3.16 µM, first compound 0.000316 µM) of 94.1%, a viability, T/C (second compound 3.16 µM, first compound 0.001 µM) of 96.7% and a viability, T/C (second compound 3.16 µM, first compound 0.00316 µM) of 85.2%. It also gave a viability, T/C (second compound 3.16 µM, first compound 0.01 µM) of 118%, a viability, T/C [25] of 104% and a viability, T/C [26] of 104%. It also gave a viability, T/C (second compound 10 µM, first compound 0.000316 µM) of 119%, a viability, T/C (second compound 10 µM, first compound 0.001 µM) of 104% and a viability, T/C (second compound 10 µM, first compound 0.00316 µM) of 101%. It also gave a viability, T/C (second compound 10 µM, first compound 0.01 µM) of 105%, a viability, T/C [31] of 109% and a viability, T/C [32] of 114%.
